Measured values from patent US5714666A, “Measurement of intracellular calcium using bioluminescent apoaequorin expressed in mammalian cells” (Children's Hospital of Philadelphia, priority 1995, dated 1998).
Blank lines part the entries; values can stand above or below the molecule they belong to.

Experiments:
Type in all cases: cell-based
human 293 cells = assay: Aequorin expression assay in human 293 cells transfected with a single plasmid (pDPaqneo3, pDP5ht2neo3 or pDP3 vector)
Description: Human 293 cells were cultured on 100 mm tissue culture dish in minimum essential medium (MEM) containing 10% charcoal treated fetal bovine serum, 2 mM L-glutamine, 100 units penicillin G sodium per ml, 100 units streptomycin sulfate per ml. DNA mediated transfection was performed when these cells grew to 70% to 80% confluence on the plates. These transfected cells were incubated in 3% CO2, 37° C. incubator overnight. Cells were replenished with fresh medium and transferred to 5% CO2, 37° C. incubator the next day [C. […] (17).
Two days after the transfection, cells were washed twice with phosphate buffered saline (PBS). Cells were then harvested by ice-cold PBS and rubber policeman. After centrifugation at 1,600 r.p.m. for 5 minutes, the pellet was dissolved in Ca^++ -free AqH buffer (120 mM NaCl, 4.8 mM KCl, 1.2 mM KH2 PO4, 25 mM Hepes, 0.1% bovine serum albumin, pH 7.4) at a concentration about 10 million cells per 1 ml solution. Tubes containing cells were wrapped with aluminum foil. Coelenterazine was a generous gift from Dr. Kishi, Harvard University and Dr. Shimomura, Marine Biological Laboratory. It was stored at -70° C., dissolved in methanol immediately before use, and kept in the dark at all times. […] Aequorin was reconstituted incubating these apoaequorin cDNA transfected cells with 10 μM coelenterazine in the dark room temperature for 30 minutes. Unincorporated coelenterazine was washed away after incubation by adding 25 ml Ca^++ -free AqH buffer to each sample and centrifugating at 1,600 r.p.m. Samples were centrifuged again and pellets of 293 cells were dissolved in Ca^++ -free AqH buffer. The final concentration of cells was approximately 10 million per 1 ml solution. For light emission measurement, 100 μl of cell sample was mixed with equal volume of appropriate reagent in a 2 ml glass tube immediately before inserted into the luminometer (Berthold Biolumat LB 9500). Counting of light emission started immediately after the glass tube insertion. The number of photons emitted during the first 30 seconds was integrated by the luminometer and shown on the screen. The time course of light emission was recorded on a chart recorder and a Mackintosh computer using the MacLab Chart/4 V3.1.3 program for further analysis.

[1] = tested on: mouse primary neuron culture; assay: Photon emission of primary neuron cultures from apoaequorin transgenic mice
Description: A transgenic mouse was mated with non-transgenic mouse B6XSJLF1 female mouse. The whole brains were removed from 19 day old mouse embryos and used to make primary neuronal cultures and incubated in minimum essential medium containing 500 μg genticin per ml. After ten days, cells were removed from plates, mixed with colenterazine and tested for aequorin expression using an expression assay.
Embryos resulting from mating transgenic mouse no.
Thereafter 10 μl (1 mg/ml PBS) Br-A23187 and 0.5 mM CaCl2 were added to the cell culture. The drug Br-A23187 opens calcium channels.

5-HT2 receptor = molecular target: T1, 5-HT2 receptor (Rattus norvegicus, UniProt P14842); assay: Aequorin light emission assay in human 293 cells co-transfected with apoaequorin cDNA and 5-HT2 cDNA; conditions: for Antagonist inhibition of light emission in response to serotonin: 50 μM antagonist, 30 seconds before 10 μM serotonin, FIG. 2
T1 construct: expressed in transfected cells; host or cells: human 293 cells, transiently co-transfected with pDPaqneo3 (apoaequorin) and pDP5ht2neo3
Description: DNA from the apoaequorin plasmid (pDPaqneo3) and the 5-HT2 plasmid (pDPSht2neo3) were mixed in equal portions in the transfection solution immediately before transfection. Transfection was performed as described in Example 2.
Two days after the transfection, cells were washed twice with phosphate buffered saline (PBS). Cells were then harvested by ice-cold PBS and rubber policeman. After centrifugation at 1,600 r.p.m. for 5 minutes, the pellet was dissolved in Ca^++ -free AqH buffer (120 mM NaCl, 4.8 mM KCl, 1.2 mM KH2 PO4, 25 mM Hepes, 0.1% bovine serum albumin, pH 7.4) at a concentration about 10 million cells per 1 ml solution. Tubes containing cells were wrapped with aluminum foil. Coelenterazine was a generous gift from Dr. Kishi, Harvard University and Dr. Shimomura, Marine Biological Laboratory. It was stored at -70° C., dissolved in methanol immediately before use, and kept in the dark at all times. The concentration of coelenterazine was estimated by the measurement of absorbance at 434 nanometer [the molar absorptivity434 =8,900 M^-1·cm^-1; K. Hori, H. Charbonneau, R. C. Hart, M. J. Cormier, Proc. Natl. Acad. Sci. U.S.A. 74, 4285 (1977)]. Aequorin was reconstituted incubating these apoaequorin cDNA transfected cells with 10 μM coelenterazine in the dark room temperature for 30 minutes. Unincorporated coelenterazine was washed away after incubation by adding 25 ml Ca^++ -free AqH buffer to each sample and centrifugating at 1,600 r.p.m. Samples were centrifuged again and pellets of 293 cells were dissolved in Ca^++ -free AqH buffer. The final concentration of cells was approximately 10 million per 1 ml solution. For light emission measurement, 100 μl of cell sample was mixed with equal volume of appropriate reagent in a 2 ml glass tube immediately before inserted into the luminometer (Berthold Biolumat LB 9500). Counting of light emission started immediately after the glass tube insertion. The number of photons emitted during the first 30 seconds was integrated by the luminometer and shown on the screen. The time course of light emission was recorded on a chart recorder and a Mackintosh computer using the MacLab Chart/4 V3.1.3 program for further analysis.
Intracellular calcium concentration was measured as described in Example 15.

T1 sequence (P14842 whole entry): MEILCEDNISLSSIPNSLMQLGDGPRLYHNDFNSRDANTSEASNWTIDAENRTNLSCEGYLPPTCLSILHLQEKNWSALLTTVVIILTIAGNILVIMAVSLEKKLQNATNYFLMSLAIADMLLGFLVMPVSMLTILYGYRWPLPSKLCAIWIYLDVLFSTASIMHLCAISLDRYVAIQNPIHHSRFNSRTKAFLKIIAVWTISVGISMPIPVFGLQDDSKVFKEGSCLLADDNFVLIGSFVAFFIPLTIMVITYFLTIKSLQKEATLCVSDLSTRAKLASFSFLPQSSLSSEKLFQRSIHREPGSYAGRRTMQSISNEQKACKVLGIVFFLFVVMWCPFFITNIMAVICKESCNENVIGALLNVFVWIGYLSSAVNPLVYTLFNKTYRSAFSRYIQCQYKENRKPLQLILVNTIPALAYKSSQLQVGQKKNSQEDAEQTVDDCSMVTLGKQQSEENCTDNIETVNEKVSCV

- Antagonist inhibition of light emission in response to serotonin (5-HT2 receptor): inhibited
Molecule: CN(C)CCCSc1ccccc1NC(=O)/C=C/c1ccccc1 [cinanserin]

- Antagonist inhibition of light emission in response to serotonin (5-HT2 receptor): inhibited
Molecule: O=C(c1ccc(F)cc1)C1CCN(CCn2c(=O)[nH]c3ccccc3c2=O)CC1 [ketanserin]

- Photon emission upon addition of serotonin (5-HT2 receptor; cells co-transfected with pDPaqneo3 and pDP5ht2neo3): dramatic rise in photon emission
- Detected photons (5-HT2 receptor; cells transfected with pDPaqneo3 & pDP5ht2neo3, 500 nM, first 30 seconds): 79,840 ± 3,342 photons
- Photon emissions per cell (5-HT2 receptor; saturating concentration (500 μM)): ≤ 40 photons per cell
Molecule: NCCc1c[nH]c2ccc(O)cc12 [serotonin]
- Detected photons (human 293 cells; cells transfected with pDP3 vector only, 500 nM): 1,599 photons
- Detected photons (human 293 cells; cells transfected with pDP5ht2neo3 only, 500 nM): 1,308 ± 339 photons
- Photon emission upon serotonin treatment (human 293 cells; cells transfected with pDPaqneo3 only, pDP5ht2neo3 only or pDP3 vector only): no increase of photo emission
- Detected photons (human 293 cells; cells transfected with pDPaqneo3 only, 500 nM): 6,150 photons

The remaining lines, values behind:

Molecule: [Ca+2].[Cl-].[Cl-] [Ca^++, CaCl2]
- Detected photons (human 293 cells; cells transfected with pDP3 vector only, 50 nM Ca++): 1,607 photons
- Detected photons (human 293 cells; cells transfected with pDP5ht2neo3 only, 50 nM Ca++): 1,346 ± 167 photons
- Photons detected upon addition of Ca++ (human 293 cells; cells transfected with pDPaqneo3 and incubated with coelenterazine cofactor): rapid and dramatic increase in the photons detected
- Detected photons (human 293 cells; cells transfected with pDPaqneo3 only, 50 nM Ca++): 293,209 photons
- Emission of photons upon addition of Ca++ (human 293 cells; cells transfected with plasmids not containing apoaequorin cDNA and untransfected cells): no rise in the emission of photons
- Light emission upon addition of Ca++ (human 293 cells; pDPaqneo3 transfected cells not incubated with coelenterazine cofactor): no increase of light emission
- Photon emission (excitotoxicity) ([1]; 100 μl of 100 mM CaCl2, control non-transgenic neuronal culture no. 6, FIG. 5B): no excitotoxic effect
- Photon emission (excitotoxicity) ([1]; 100 μl of 100 mM CaCl2, culture from transgenic mouse no. 2, FIG. 5A): increase in cell excitotoxicity

Molecule: O=C(O)CN(CCN(CC(=O)O)CC(=O)O)CC(=O)O [EDTA]
- Effect on Ca++ induced photon emission (human 293 cells; EDTA added to buffer, pDPaqneo3-transfected cells (data not shown)): prevented the increase in photon emission

Molecule: Br-A23187
- Photon emission (excitotoxicity) ([1]; 10 μl (1 mg/ml PBS) Br-A23187 with 0.5 mM CaCl2, culture from transgenic mouse no. 20, FIG. 6A): increased excitotoxicity
- Photon emission (excitotoxicity) ([1]; Br-A23187 with 0.5 mM CaCl2 and 50 mM EGTA, culture from transgenic mouse no. 20, FIG. 6B): increased excitotoxicity
